Test results reported in ChEMBL document CHEMBL1201862, “PubChem BioAssay data set” (2004).
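1) Cells in 96-well plates. 2) Compound, 48 h, 5 concentrations. 3) Linear interpolation between surrounding doses. 4) Unreached endpoint = highest concentration. GI50: concentration for 50% inhibition of growth.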 The source made the active and inactive calls. Cut-off read from the data, not from the text of the source: active = GI50 up to about 1.1 µM and inactive = higher.

Tests used:
Assay in all cases: NCI tumour cell line growth inhibition, 48 h
[1] = system: NCI-H23
[2] = system: IGROV-1
[3] = system: COLO 205
[4] = system: PC-3
[5] = system: SNB-19
[6] = system: SK-MEL-5
[7] = system: RXF 393
[8] = system: UO-31
[9] = system: SK-MEL-28
[10] = system: Malme-3M
[11] = system: 786-0
[12] = system: DU-145
[13] = system: Hs-578T
[14] = system: HT-29
[15] = system: MOLT-4
[16] = system: UACC-257
[17] = system: BT-549
[18] = system: HCT-116
[19] = system: OVCAR-3
[20] = system: MDA-MB-435
[21] = system: UACC-62
[22] = system: SNB-75
[23] = system: SK-OV-3
[24] = system: NCI-H226
[25] = system: SF-268
[26] = system: SK-MEL-2
[27] = system: TK-10
[28] = system: A549
[29] = system: A498
[30] = system: HCT-15
[31] = system: CAKI-1
[32] = system: OVCAR-5
[33] = system: SW-620
[34] = system: OVCAR-8
[35] = system: SF-295
[36] = system: KM12
[37] = system: HOP-62
[38] = system: SN12C
[39] = system: EKVX
[40] = system: NCI-H522
[41] = system: NCI-H460
[42] = system: MDA-MB-231
[43] = system: HCC 2998
[44] = system: U-251
[45] = system: ACHN
[46] = system: RPMI-8226
[47] = system: SF-539
[48] = system: MCF7
[49] = system: M14
[50] = system: HOP-92
[51] = system: LOX IMVI
[52] = system: OVCAR-4
[53] = system: MDA-N
[54] = system: HL-60
[55] = system: K562
[56] = system: T47D
[57] = system: CCRF-CEM
[58] = system: NCI/ADR-RES
[59] = system: SR

## COc1cc(/C=C/C(C)=O)ccc1OP(=O)(O)O
[1]
  GI50: > 100 µM (inactive)
[2]
  GI50: > 100 µM (inactive)
[3]
  GI50: > 100 µM (inactive)
[4]
  GI50: > 100 µM (inactive)
[5]
  GI50: > 100 µM (inactive)
[6]
  GI50: > 100 µM (inactive)
[7]
  GI50: > 100 µM (inactive)
[8]
  GI50: > 100 µM (inactive)
[9]
  GI50: > 100 µM (inactive)
[10]
  GI50: > 100 µM (inactive)
[11]
  GI50: > 100 µM (inactive)
[12]
  GI50: > 100 µM (inactive)
[13]
  GI50: > 100 µM (inactive)
[14]
  GI50: > 100 µM (inactive)
[15]
  GI50: > 100 µM (inactive)
[16]
  GI50: > 100 µM (inactive)
[17]
  GI50: > 100 µM (inactive)
[18]
  GI50: > 100 µM (inactive)
[19]
  GI50: > 100 µM (inactive)
[20]
  GI50: > 100 µM (inactive)
[21]
  GI50: > 100 µM (inactive)
[22]
  GI50: > 100 µM (inactive)
[23]
  GI50: > 100 µM (inactive)
[24]
  GI50: > 100 µM (inactive)
[25]
  GI50: > 100 µM (inactive)
[26]
  GI50: > 100 µM (inactive)
[27]
  GI50: > 100 µM (inactive)
[28]
  GI50: > 100 µM (inactive)
[29]
  GI50: > 100 µM (inactive)
[30]
  GI50: > 100 µM
[31]
  GI50: > 100 µM (inactive)
[32]
  GI50: > 100 µM (inactive)
[33]
  GI50: > 100 µM (inactive)
[34]
  GI50: > 100 µM (inactive)
[35]
  GI50: > 100 µM (inactive)
[36]
  GI50: > 100 µM (inactive)
[37]
  GI50: > 100 µM (inactive)
[38]
  GI50: > 100 µM (inactive)
[39]
  GI50: > 100 µM (inactive)
[40]
  GI50: > 100 µM (inactive)
[41]
  GI50: > 100 µM (inactive)
[42]
  GI50: > 100 µM (inactive)
[43]
  GI50: > 100 µM (inactive)
[44]
  GI50: > 100 µM (inactive)
[45]
  GI50: > 100 µM (inactive)
[46]
  GI50: > 100 µM (inactive)
[47]
  GI50: > 100 µM (inactive)
[48]
  GI50: > 100 µM (inactive)
[49]
  GI50: > 100 µM (inactive)
[50]
  GI50: > 100 µM (inactive)
[51]
  GI50: > 100 µM (inactive)
[52]
  GI50: > 100 µM (inactive)
[53]
  GI50: > 100 µM (inactive)

## O=C(O)c1ccc(Nc2nc3ccc(C(F)(F)F)cc3nc2C(=O)O)cc1
[1]
  GI50: > 100 µM (inactive)
[2]
  GI50: > 100 µM (inactive)
[3]
  GI50: > 100 µM (inactive)
[4]
  GI50: > 100 µM (inactive)
[5]
  GI50: > 100 µM (inactive)
[6]
  GI50: > 100 µM (inactive)
[7]
  GI50: > 100 µM (inactive)
[8]
  GI50: > 100 µM (inactive)
[9]
  GI50: > 100 µM (inactive)
[10]
  GI50: > 100 µM (inactive)
[11]
  GI50: > 100 µM (inactive)
[12]
  GI50: > 100 µM (inactive)
[13]
  GI50: > 100 µM (inactive)
[14]
  GI50: > 100 µM (inactive)
[54]
  GI50: > 100 µM (inactive)
[15]
  GI50: > 100 µM (inactive)
[16]
  GI50: > 100 µM (inactive)
[55]
  GI50: > 100 µM (inactive)
[18]
  GI50: > 100 µM (inactive)
[19]
  GI50: > 100 µM (inactive)
[20]
  GI50: > 100 µM (inactive)
[21]
  GI50: > 100 µM (inactive)
[22]
  GI50: > 100 µM (inactive)
[23]
  GI50: > 100 µM (inactive)
[24]
  GI50: > 100 µM (inactive)
[25]
  GI50: > 100 µM (inactive)
[26]
  GI50: > 100 µM (inactive)
[27]
  GI50: > 100 µM (inactive)
[56]
  GI50: > 100 µM (inactive)
[28]
  GI50: > 100 µM (inactive)
[30]
  GI50: > 100 µM
[31]
  GI50: > 100 µM (inactive)
[32]
  GI50: > 100 µM (inactive)
[33]
  GI50: > 100 µM (inactive)
[34]
  GI50: > 100 µM (inactive)
[35]
  GI50: > 100 µM (inactive)
[36]
  GI50: > 100 µM (inactive)
[37]
  GI50: > 100 µM (inactive)
[57]
  GI50: > 100 µM (inactive)
[38]
  GI50: > 100 µM (inactive)
[39]
  GI50: > 100 µM (inactive)
[40]
  GI50: > 100 µM (inactive)
[41]
  GI50: > 100 µM (inactive)
[42]
  GI50: > 100 µM (inactive)
[43]
  GI50: > 100 µM (inactive)
[44]
  GI50: > 100 µM (inactive)
[45]
  GI50: > 100 µM (inactive)
[46]
  GI50: > 100 µM (inactive)
[47]
  GI50: > 100 µM (inactive)
[48]
  GI50: > 100 µM (inactive)
[58]
  GI50: > 100 µM (inactive)
[49]
  GI50: > 100 µM (inactive)
[59]
  GI50: > 100 µM (inactive)
[50]
  GI50: > 100 µM (inactive)
[51]
  GI50: > 100 µM (inactive)
[52]
  GI50: > 100 µM (inactive)
[53]
  GI50: > 100 µM (inactive)
